Tests used:
[1] = biological target: Rho kinase 2 (Homo sapiens, UniProt O75116); test: In vitro Rho kinase inhibitory activity assay (ADP-Glo kit, Myelin Basic Protein substrate); format: biochemical; conditions: 10 μM ATP, 25° C., read-out: ROCK2 inhibitory activity (Ki, range of activity)
In short: (§1)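 First, compound was incubated with either Rho kinase isoform for 30 mins at 25 °C; next, ATP was added to 10 μM final with 2.5 μM Myelin Basic Protein substrate; after 1 hour, ADP formed was detected by ADP-Glo luminescence. Dose-response data yielded IC50, converted to Ki using Cheng-Prusoff.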

[2] = biological target: Rho kinase 1 (Homo sapiens, UniProt Q13464); test: as above; format: biochemical; conditions: 10 μM ATP, 25° C., read-out: ROCK1 inhibitory activity (Ki, range of activity)
In short: as §1

Chain of Rho kinase 1 (Q13464 whole entry): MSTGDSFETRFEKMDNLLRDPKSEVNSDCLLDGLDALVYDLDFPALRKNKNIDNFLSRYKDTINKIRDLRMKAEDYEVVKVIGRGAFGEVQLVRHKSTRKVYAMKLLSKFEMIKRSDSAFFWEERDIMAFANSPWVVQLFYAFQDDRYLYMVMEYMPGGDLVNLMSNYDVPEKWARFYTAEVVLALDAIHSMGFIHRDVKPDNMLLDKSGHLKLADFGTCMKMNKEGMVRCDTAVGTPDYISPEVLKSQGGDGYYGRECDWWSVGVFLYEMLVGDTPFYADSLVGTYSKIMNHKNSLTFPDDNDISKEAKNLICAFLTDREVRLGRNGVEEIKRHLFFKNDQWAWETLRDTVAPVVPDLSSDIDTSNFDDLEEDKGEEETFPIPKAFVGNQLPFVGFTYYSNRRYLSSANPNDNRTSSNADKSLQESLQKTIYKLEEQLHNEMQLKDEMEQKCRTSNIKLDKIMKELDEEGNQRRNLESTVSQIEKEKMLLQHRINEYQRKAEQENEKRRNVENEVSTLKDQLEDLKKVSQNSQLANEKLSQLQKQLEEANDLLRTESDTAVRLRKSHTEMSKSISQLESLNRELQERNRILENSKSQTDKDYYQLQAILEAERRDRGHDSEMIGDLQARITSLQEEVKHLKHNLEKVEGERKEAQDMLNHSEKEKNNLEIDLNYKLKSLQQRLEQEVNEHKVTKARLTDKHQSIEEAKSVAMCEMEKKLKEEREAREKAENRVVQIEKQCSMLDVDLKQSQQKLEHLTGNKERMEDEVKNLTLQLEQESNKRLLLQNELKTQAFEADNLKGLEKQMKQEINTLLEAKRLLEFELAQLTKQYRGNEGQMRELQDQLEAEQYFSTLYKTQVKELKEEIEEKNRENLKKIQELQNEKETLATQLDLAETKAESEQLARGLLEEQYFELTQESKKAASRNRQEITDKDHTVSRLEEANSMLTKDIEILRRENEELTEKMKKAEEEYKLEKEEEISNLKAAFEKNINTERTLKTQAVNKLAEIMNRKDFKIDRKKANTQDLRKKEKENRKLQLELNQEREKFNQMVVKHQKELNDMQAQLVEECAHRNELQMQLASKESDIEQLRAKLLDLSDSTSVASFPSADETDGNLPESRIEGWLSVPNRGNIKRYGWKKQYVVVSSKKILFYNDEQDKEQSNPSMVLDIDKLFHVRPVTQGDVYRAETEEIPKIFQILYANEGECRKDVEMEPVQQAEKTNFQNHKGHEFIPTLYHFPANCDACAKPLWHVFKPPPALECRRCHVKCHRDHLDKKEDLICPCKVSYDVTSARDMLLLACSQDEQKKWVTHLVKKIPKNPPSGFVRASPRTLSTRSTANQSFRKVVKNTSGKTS
Chain of Rho kinase 2 (O75116 whole entry, canonical isoform): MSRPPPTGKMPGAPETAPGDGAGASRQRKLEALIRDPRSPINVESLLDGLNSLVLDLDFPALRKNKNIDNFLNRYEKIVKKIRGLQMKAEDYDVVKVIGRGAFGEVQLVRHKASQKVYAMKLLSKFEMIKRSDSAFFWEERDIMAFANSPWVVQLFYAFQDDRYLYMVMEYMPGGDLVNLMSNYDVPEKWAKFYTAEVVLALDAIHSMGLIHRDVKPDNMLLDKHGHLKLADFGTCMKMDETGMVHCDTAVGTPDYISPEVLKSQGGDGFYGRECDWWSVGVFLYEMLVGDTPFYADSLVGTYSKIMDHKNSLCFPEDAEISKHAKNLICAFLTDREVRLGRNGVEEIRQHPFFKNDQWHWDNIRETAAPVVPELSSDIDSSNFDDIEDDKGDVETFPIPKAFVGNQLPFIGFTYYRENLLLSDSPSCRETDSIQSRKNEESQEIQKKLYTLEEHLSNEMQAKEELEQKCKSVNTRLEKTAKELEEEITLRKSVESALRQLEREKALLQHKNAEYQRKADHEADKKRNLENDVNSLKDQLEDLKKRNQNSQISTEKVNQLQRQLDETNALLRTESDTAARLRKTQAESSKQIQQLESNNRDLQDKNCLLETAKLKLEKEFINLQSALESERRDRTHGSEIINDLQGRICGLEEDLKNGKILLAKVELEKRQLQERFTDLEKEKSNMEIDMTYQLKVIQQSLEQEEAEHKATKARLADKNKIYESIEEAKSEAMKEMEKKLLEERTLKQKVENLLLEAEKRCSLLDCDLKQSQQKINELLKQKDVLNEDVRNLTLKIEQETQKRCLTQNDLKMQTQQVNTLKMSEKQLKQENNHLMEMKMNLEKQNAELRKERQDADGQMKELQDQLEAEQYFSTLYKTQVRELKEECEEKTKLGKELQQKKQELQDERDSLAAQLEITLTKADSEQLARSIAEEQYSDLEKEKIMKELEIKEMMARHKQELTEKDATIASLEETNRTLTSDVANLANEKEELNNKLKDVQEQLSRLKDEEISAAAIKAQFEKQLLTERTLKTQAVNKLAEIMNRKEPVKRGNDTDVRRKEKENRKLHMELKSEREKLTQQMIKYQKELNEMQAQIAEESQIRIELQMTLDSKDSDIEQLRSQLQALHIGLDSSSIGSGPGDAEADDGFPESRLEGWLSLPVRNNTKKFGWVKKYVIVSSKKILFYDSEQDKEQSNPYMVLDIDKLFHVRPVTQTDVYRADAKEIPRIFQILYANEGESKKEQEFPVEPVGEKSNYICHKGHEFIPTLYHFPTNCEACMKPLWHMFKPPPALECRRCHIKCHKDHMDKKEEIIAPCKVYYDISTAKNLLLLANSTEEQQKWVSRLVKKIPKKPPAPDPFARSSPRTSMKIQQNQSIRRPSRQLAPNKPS

Ki [1] | Ki [2] | Compound
< 0.05 µM | < 0.05 µM | CC1=C(C(=O)Nc2ccc3cnccc3c2)C(c2ccc(C(F)(F)F)c(F)c2)n2nc(CN3CCOCC3)cc2N1 (stereo not drawn) [Example 95, 7-(3-fluoro-4-(trifluoromethyl)phenyl)-N-(isoquinolin-6-yl)-5-methyl-2-(morpholinomethyl)-4,7-dihydropyrazolo[1,5-a]pyrimidine-6-carboxamide]
< 0.05 µM | < 0.05 µM | COCCN(C)Cc1cc2n(n1)C(c1ccc(C(F)(F)F)c(F)c1)C(C(=O)Nc1ccc3cnccc3c1)=C(C)N2 (stereo not drawn) [Example 98, 7-(3-fluoro-4-(trifluoromethyl)phenyl)-N-(isoquinolin-6-yl)-2-(((2-methoxyethyl)(methyl)amino)methyl)-5-methyl-4,7-dihydropyrazolo[1,5-a]pyrimidine-6-carboxamide]
< 0.05 µM | < 0.05 µM | COC1CCN(Cc2cc3n(n2)C(c2ccc(C(F)(F)F)c(F)c2)C(C(=O)Nc2ccc4cnccc4c2)=C(C)N3)CC1 (stereo not drawn) [Example 99, 7-(3-fluoro-4-(trifluoromethyl)phenyl)-N-(isoquinolin-6-yl)-2-((4-methoxypiperidin-1-yl)methyl)-5-methyl-4,7-dihydropyrazolo[1,5-a]pyrimidine-6-carboxamide]
< 0.05 µM | < 0.05 µM | COC1CN(Cc2cc3n(n2)C(c2ccc(C(F)(F)F)c(F)c2)C(C(=O)Nc2ccc4cnccc4c2)=C(C)N3)C1 (stereo not drawn) [Example 100, 7-(3-fluoro-4-(trifluoromethyl)phenyl)-N-(isoquinolin-6-yl)-2-((3-methoxyazetidin-1-yl)methyl)-5-methyl-4,7-dihydropyrazolo[1,5-a]pyrimidine-6-carboxamide]
< 0.05 µM | < 0.05 µM | COCC1CN(Cc2cc3n(n2)C(c2ccc(C(F)(F)F)c(F)c2)C(C(=O)Nc2ccc4cnccc4c2)=C(C)N3)C1 (stereo not drawn) [Example 101, 7-(3-fluoro-4-(trifluoromethyl)phenyl)-N-(isoquinolin-6-yl)-2-((3-(methoxymethyl)azetidin-1-yl)methyl)-5-methyl-4,7-dihydropyrazolo[1,5-a]pyrimidine-6-carboxamide]
< 0.05 µM | < 0.05 µM | CC1=C(C(=O)Nc2ccc3cnccc3c2)C(c2ccc(C(F)(F)F)c(F)c2)n2nc(CN3CCCC3)cc2N1 (stereo not drawn) [Example 102, 7-(3-fluoro-4-(trifluoromethyl)phenyl)-N-(isoquinolin-6-yl)-5-methyl-2-(pyrrolidin-1-ylmethyl)-4,7-dihydropyrazolo[1,5-a]pyrimidine-6-carboxamide]
< 0.05 µM | < 0.05 µM | CC1=C(C(=O)Nc2ccc3cnccc3c2)C(c2ccc(C(F)(F)F)c(F)c2)n2nc(CN3CCC4(CCN(C)CC4)C3)cc2N1 (stereo not drawn) [Example 103, 7-(3-fluoro-4-(trifluoromethyl)phenyl)-N-(isoquinolin-6-yl)-5-methyl-2-((8-methyl-2,8-diazaspiro[4.5]decan-2-yl)methyl)-4,7-dihydropyrazolo[1,5-a]pyrimidine-6-carboxamide]
< 0.05 µM | < 0.05 µM | CC1=C(C(=O)Nc2ccc3cnccc3c2)C(c2ccc(C(F)(F)F)c(F)c2)n2nc(CN3CCC(N4CCCC4)CC3)cc2N1 (stereo not drawn) [Example 105, 7-(3-fluoro-4-(trifluoromethyl)phenyl)-N-(isoquinolin-6-yl)-5-methyl-2-((4-(pyrrolidin-1-yl)piperidin-1-yl)methyl)-4,7-dihydropyrazolo[1,5-a]pyrimidine-6-carboxamide]
< 0.05 µM | < 0.05 µM | CC1=C(C(=O)Nc2ccc3cnccc3c2)C(c2ccc(C(F)(F)F)c(F)c2)n2nc(CN3CC(CN(C)C)C3)cc2N1 (stereo not drawn) [Example 106, 2-((3-((dimethylamino)methyl)azetidin-1-yl)methyl)-7-(3-fluoro-4-(trifluoromethyl)phenyl)-N-(isoquinolin-6-yl)-5-methyl-4,7-dihydropyrazolo[1,5-a]pyrimidine-6-carboxamide]
< 0.05 µM | < 0.05 µM | CC1=C(C(=O)Nc2ccc3[nH]ncc3c2)C(c2ccc(C(F)(F)F)cc2)n2nc(CN3CCOCC3)cc2N1 (stereo not drawn) [Example 107, N-(1H-indazol-5-yl)-5-methyl-2-(morpholinomethyl)-7-(4-(trifluoromethyl)phenyl)-4,7-dihydropyrazolo[1,5-a]pyrimidine-6-carboxamide]
< 0.05 µM | < 0.05 µM | CC1=C(C(=O)Nc2ccc3cnccc3c2)C(c2ccc(C(F)(F)F)c(F)c2)n2nc(CN3CCS(=O)(=O)CC3)cc2N1 (stereo not drawn) [Example 108, 2-((1,1-Dioxidothiomorpholino)methyl)-7-(3-fluoro-4-(trifluoromethyl)phenyl)-N-(isoquinolin-6-yl)-5-methyl-4,7-dihydropyrazolo[1,5-a]pyrimidine-6-carboxamide]
< 0.05 µM | < 0.05 µM | CC(=O)N1CCN(Cc2cc3n(n2)C(c2ccc(C(F)(F)F)c(F)c2)C(C(=O)Nc2ccc4cnccc4c2)=C(C)N3)CC1 (stereo not drawn) [Example 109, 2-((4-acetylpiperazin-1-yl)methyl)-7-(3-fluoro-4-(trifluoromethyl)phenyl)-N-(isoquinolin-6-yl)-5-methyl-4,7-dihydropyrazolo[1,5-a]pyrimidine-6-carboxamide]
< 0.05 µM | < 0.05 µM | CC1=C(C(=O)Nc2ccc3[nH]ncc3c2)C(c2ccc(C(F)(F)F)cc2)n2nc(CN)cc2N1 (stereo not drawn) [Example 111, 2-(aminomethyl)-N-(1H-indazol-5-yl)-5-methyl-7-(4-(trifluoromethyl)phenyl)-4,7-dihydropyrazolo[1,5-a]pyrimidine-6-carboxamide]
< 0.05 µM | < 0.05 µM | CC1=C(C(=O)Nc2ccc3cnccc3c2)C(c2ccc(C(F)(F)F)c(F)c2)n2nc(CN)cc2N1 (stereo not drawn) [Example 112, 2-(aminomethyl)-7-(3-fluoro-4-(trifluoromethyl)phenyl)-N-(isoquinolin-6-yl)-5-methyl-4,7-dihydropyrazolo[1,5-a]pyrimidine-6-carboxamide]
< 0.05 µM | < 0.05 µM | CCOC(=O)c1cc2n(n1)C(c1ccc(C(F)(F)F)c(F)c1)C(C(=O)Nc1ccc3cnccc3n1)=C(C)N2 (stereo not drawn) [Example 113, ethyl 6-((1,6-naphthyridin-2-yl)carbamoyl)-7-(3-fluoro-4-(trifluoromethyl)phenyl)-5-methyl-4,7-dihydropyrazolo[1,5-a]pyrimidine-2-carboxylate]
< 0.05 µM | < 0.05 µM | CCOC(=O)c1cc2n(n1)C(c1ccc(C(F)(F)F)c(F)c1)C(C(=O)Nc1ccc3cncc(C)c3c1)=C(C)N2 (stereo not drawn) [Example 114, ethyl 7-(3-fluoro-4-(trifluoromethyl)phenyl)-5-methyl-6-((4-methylisoquinolin-6-yl)carbamoyl)-4,7-dihydropyrazolo[1,5-a]pyrimidine-2-carboxylate]
< 0.05 µM | < 0.05 µM | CCOC(=O)c1cc2n(n1)C(c1ccc(C(F)F)c(F)c1)C(C(=O)Nc1ccc3cnccc3c1)=C(C)N2 (stereo not drawn) [Example 115, ethyl 7-(4-(difluoromethyl)-3-fluorophenyl)-6-(isoquinolin-6-ylcarbamoyl)-5-methyl-4,7-dihydropyrazolo[1,5-a]pyrimidine-2-carboxylate]
< 0.05 µM | < 0.05 µM | CC1=C(C(=O)Nc2ccc3cnccc3c2)C(c2ccc(C(F)(F)F)c(F)c2)n2nc(C3COC3)cc2N1 (stereo not drawn) [Example 116, 7-(3-fluoro-4-(trifluoromethyl)phenyl)-N-(isoquinolin-6-yl)-5-methyl-2-(oxetan-3-yl)-4,7-dihydropyrazolo[1,5-a]pyrimidine-6-carboxamide]
< 0.05 µM | < 0.05 µM | CSc1cc2n(n1)C(c1ccc(C(F)(F)F)c(F)c1)C(C(=O)Nc1ccc3cnccc3c1)=C(C)N2 (stereo not drawn) [Example 117, 7-(3-fluoro-4-(trifluoromethyl)phenyl)-N-(isoquinolin-6-yl)-5-methyl-2-(methylthio)-4,7-dihydropyrazolo[1,5-a]pyrimidine-6-carboxamide]
< 0.05 µM | < 0.05 µM | O=C(Nc1ccc2cnccc2c1)C1=C(C2CC2)Nc2cc(CO)nn2C1c1ccc(C(F)(F)F)c(F)c1 (stereo not drawn) [Example 118, 5-cyclopropyl-7-(3-fluoro-4-(trifluoromethyl)phenyl)-2-(hydroxymethyl)-N-(isoquinolin-6-yl)-4,7-dihydropyrazolo[1,5-a]pyrimidine-6-carboxamide]
< 0.05 µM | < 0.05 µM | COCC1=C(C(=O)Nc2ccc3cnccc3c2)C(c2ccc(C(F)(F)F)c(F)c2)n2nc(CO)cc2N1 (stereo not drawn) [Example 119, 7-(3-fluoro-4-(trifluoromethyl)phenyl)-2-(hydroxymethyl)-N-(isoquinolin-6-yl)-5-(methoxymethyl)-4,7-dihydropyrazolo[1,5-a]pyrimidine-6-carboxamide]
< 0.05 µM | < 0.05 µM | CC1=C(C(=O)Nc2ccc3cnccc3c2)C(C2CCC(C(F)(F)F)CC2)n2nc(CN(C)C)cc2N1 (stereo not drawn) [Example 120, 2-((dimethylamino)methyl)-N-(isoquinolin-6-yl)-5-methyl-7-(4-(trifluoromethyl)cyclohexyl)-4,7-dihydropyrazolo[1,5-a]pyrimidine-6-carboxamide]
< 0.05 µM | < 0.05 µM | CC1=C(C(=O)Nc2ccc3cnccc3c2)C(c2ccc(C)c(F)c2F)n2nc(CN(C)C)cc2N1 (stereo not drawn) [Example 121, 7-(2,3-difluoro-4-methylphenyl)-2-((dimethylamino)methyl)-N-(isoquinolin-6-yl)-5-methyl-4,7-dihydropyrazolo[1,5-a]pyrimidine-6-carboxamide]
< 0.05 µM | < 0.05 µM | CC1=C(C(=O)Nc2ccc3cnccc3c2)C(c2ccc(C(F)(F)F)c(F)c2F)n2nc(CN(C)C)cc2N1 (stereo not drawn) [Example 122, 7-(2,3-difluoro-4-(trifluoromethyl)phenyl)-2-((dimethylamino)methyl)-N-(isoquinolin-6-yl)-5-methyl-4,7-dihydropyrazolo[1,5-a]pyrimidine-6-carboxamide]

Source: patent US10584128B2, “Bicyclic dihydropyrimidine-carboxamide derivatives as Rho-Kinase inhibitors” (CHIESI FARMACEUTICI S.p.A., priority 2016, dated 2020)
